Measured values: ChEMBL document CHEMBL1201862, “PubChem BioAssay data set” (2004)
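Dose response: 5 concentrations. Exposure: 48 h. Format: 96-well plates. Endpoint: linear interpolation; highest concentration if not reached. Abbreviation: GI50, concentration required for 50% inhibition of growth.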 Activity calls are given as the source filed them. No stated cut-off is given here; in the data, active = GI50 up to about 1.1 µM and inactive = higher.

How the values were obtained:
Experiment in all cases: growth of human tumour cells (NCI), 48 h
UACC-62 = tested on: UACC-62
UACC-257 = tested on: UACC-257
SNB-75 = tested on: SNB-75
A549 = tested on: A549
LOX IMVI = tested on: LOX IMVI
OVCAR-8 = tested on: OVCAR-8
NCI-H460 = tested on: NCI-H460
SF-295 = tested on: SF-295
SR = tested on: SR
TK-10 = tested on: TK-10
EKVX = tested on: EKVX
OVCAR-4 = tested on: OVCAR-4
M14 = tested on: M14
A498 = tested on: A498
Malme-3M = tested on: Malme-3M
RPMI-8226 = tested on: RPMI-8226
UO-31 = tested on: UO-31
HOP-92 = tested on: HOP-92
K562 = tested on: K562
BT-549 = tested on: BT-549

SMILES	GI50 (UACC-62)	GI50 (UACC-257)	GI50 (SNB-75)	GI50 (A549)	GI50 (LOX IMVI)	GI50 (OVCAR-8)	GI50 (NCI-H460)	GI50 (SF-295)	GI50 (SR)	GI50 (TK-10)	GI50 (EKVX)	GI50 (OVCAR-4)	GI50 (M14)	GI50 (A498)	GI50 (Malme-3M)	GI50 (RPMI-8226)	GI50 (UO-31)	GI50 (HOP-92)	GI50 (K562)	GI50 (BT-549)
COc1ccc2c(c1)c(=O)c1c(NCCN(C)C)ccc3nnn2c31	4.71 µM (inactive)	4.69 µM (inactive)	7.1 µM (inactive)	2.21 µM (inactive)	1.33 µM (inactive)	1.04 µM (active)	1.61 µM (inactive)	2.11 µM (inactive)	0.493 µM (active)	2.5 µM (inactive)	2.05 µM (inactive)	1.97 µM (inactive)	3.99 µM (inactive)	9.51 µM (inactive)	3.94 µM (inactive)	1.65 µM (inactive)	2.17 µM (inactive)	2.19 µM (inactive)	1.6 µM (inactive)	–
COC(=O)c1c(O)c2c(c3c1OC(C)(C)CC3)OC(C)(C)CC2	18.9 µM (inactive)	20.4 µM (inactive)	> 10 µM (inactive)	20.5 µM (inactive)	–	17.6 µM (inactive)	22.3 µM (inactive)	17 µM (inactive)	–	> 10 µM (inactive)	21.2 µM (inactive)	32.2 µM (inactive)	19.1 µM (inactive)	18.7 µM (inactive)	0.824 µM (active)	–	18.8 µM (inactive)	–	25.1 µM (inactive)	20 µM (inactive)
O=C1c2ccccc2-c2c1c(-c1ccc(F)cc1)nc1ccc3ccccc3c21	> 100 µM (inactive)	> 100 µM (inactive)	> 100 µM (inactive)	> 100 µM (inactive)	> 100 µM (inactive)	> 100 µM (inactive)	> 100 µM (inactive)	> 100 µM (inactive)	–	–	> 100 µM (inactive)	> 100 µM (inactive)	> 100 µM (inactive)	> 100 µM (inactive)	> 100 µM (inactive)	> 100 µM (inactive)	> 100 µM (inactive)	–	> 100 µM (inactive)	> 100 µM (inactive)
COc1cc2c(cc1OC)C(C)N(C)c1c-2c(OC(C)=O)cc2cc(OC)c(OC)cc12 (stereo not drawn)	12.5 µM (inactive)	11.1 µM (inactive)	31 µM (inactive)	16.9 µM (inactive)	13.2 µM (inactive)	9.4 µM (inactive)	6.38 µM (inactive)	11.8 µM (inactive)	–	23.2 µM (inactive)	13.2 µM (inactive)	5.61 µM (inactive)	11.7 µM (inactive)	10.7 µM (inactive)	3.72 µM (inactive)	8.69 µM (inactive)	12.1 µM (inactive)	–	23.4 µM (inactive)	18.2 µM (inactive)
C[C@]12CC[C@H](OCCC#N)CC1=CC[C@@H]1C2CC[C@]2(C)/C(=N/OCCC#N)CCC12 (stereo partly drawn)	21.9 µM (inactive)	6.62 µM (inactive)	28.1 µM (inactive)	31.3 µM (inactive)	5.7 µM (inactive)	> 92.7 µM (inactive)	97.7 µM (inactive)	17.2 µM (inactive)	4.43 µM (inactive)	> 44.4 µM (inactive)	> 94.8 µM (inactive)	29 µM (inactive)	38.3 µM (inactive)	> 100 µM (inactive)	30.1 µM (inactive)	> 100 µM (inactive)	> 100 µM (inactive)	14.3 µM (inactive)	> 22.4 µM (inactive)	–
CCOC(=O)C(=[N+]=[N-])C(=O)CN1C(=O)c2ccccc2C1=O	> 100 µM (inactive)	> 100 µM (inactive)	> 100 µM (inactive)	> 100 µM (inactive)	–	> 100 µM (inactive)	> 100 µM (inactive)	> 100 µM (inactive)	–	> 100 µM (inactive)	> 100 µM (inactive)	> 100 µM (inactive)	> 100 µM (inactive)	> 100 µM (inactive)	–	–	> 100 µM (inactive)	> 100 µM (inactive)	> 100 µM (inactive)	> 100 µM (inactive)
COCCOCC(=O)N(CCn1ccc(NC(c2ccccc2)(c2ccccc2)c2ccccc2)nc1=O)CCn1cnc2nc(N)[nH]c(=O)c21	> 100 µM (inactive)	> 100 µM (inactive)	> 100 µM (inactive)	> 100 µM (inactive)	> 100 µM (inactive)	> 100 µM (inactive)	> 100 µM (inactive)	> 100 µM (inactive)	> 100 µM (inactive)	> 100 µM (inactive)	> 100 µM (inactive)	> 100 µM (inactive)	> 100 µM (inactive)	> 100 µM (inactive)	> 100 µM (inactive)	> 100 µM (inactive)	> 100 µM (inactive)	> 100 µM (inactive)	> 100 µM (inactive)	–
CC1(C)CNCC(C)(OCc2ccccc2)C(=O)NC(C)(C)CNCC(C)(OCc2ccccc2)C(=O)N1 (stereo not drawn)	> 10 µM (inactive)	> 10 µM (inactive)	6.27 µM (inactive)	> 10 µM (inactive)	> 10 µM (inactive)	> 10 µM (inactive)	> 10 µM (inactive)	> 10 µM (inactive)	–	> 10 µM (inactive)	> 10 µM (inactive)	–	> 10 µM (inactive)	> 10 µM (inactive)	> 10 µM (inactive)	–	6 µM (inactive)	0.385 µM (active)	> 10 µM (inactive)	> 10 µM (inactive)
Cc1ccc(/C=N/NS(=O)(=O)c2ccccc2)cc1	> 100 µM (inactive)	> 100 µM (inactive)	> 100 µM (inactive)	> 100 µM (inactive)	> 100 µM (inactive)	> 100 µM (inactive)	> 100 µM (inactive)	74 µM (inactive)	> 100 µM (inactive)	> 100 µM (inactive)	> 100 µM (inactive)	> 100 µM (inactive)	> 100 µM (inactive)	> 100 µM (inactive)	> 100 µM (inactive)	> 100 µM (inactive)	> 100 µM (inactive)	> 100 µM (inactive)	> 100 µM (inactive)	–
OC(C/C(=N\N1CCCCC1)c1cccs1)(C(F)(F)F)C(F)(F)F	> 10 µM (inactive)	> 10 µM (inactive)	> 10 µM (inactive)	> 10 µM (inactive)	> 10 µM (inactive)	> 10 µM (inactive)	> 10 µM (inactive)	> 10 µM (inactive)	> 10 µM (inactive)	> 10 µM (inactive)	> 10 µM (inactive)	> 10 µM (inactive)	> 10 µM (inactive)	> 10 µM (inactive)	> 10 µM (inactive)	> 10 µM (inactive)	> 10 µM (inactive)	> 10 µM (inactive)	> 10 µM (inactive)	–
COc1ccc(C(c2ccc(C(C)C)cc(OC)c2=O)c2ccc(C(C)C)cc(OC)c2=O)cc1	14.8 µM (inactive)	15.5 µM (inactive)	19.6 µM (inactive)	12 µM (inactive)	15.3 µM (inactive)	16.6 µM (inactive)	14.6 µM (inactive)	16.2 µM (inactive)	10.4 µM (inactive)	19.6 µM (inactive)	13.6 µM (inactive)	12.2 µM (inactive)	14.9 µM (inactive)	17.7 µM (inactive)	16.5 µM (inactive)	5.06 µM (inactive)	14.3 µM (inactive)	13.6 µM (inactive)	10.7 µM (inactive)	–
